Measured values from patent US20260083865A1, “PROSTATE SPECIFIC MEMBRANE ANTIGEN (PSMA) LIGANDS AND USE THEREOF” (priority 2022, published 2026).
Like-named read-outs stand apart in the source and are kept apart here. Numbered stars: 1 amine (or outer) side, 2 acyl side, 3 side chain; on linkers, the order of the positions; unused ones are H or OH. Bridge positions count the residues as written; N and C are the ends. Square brackets hold non-standard residues; d marks the D form. Side chains are listed from the residue outwards. Peptide text beside a SMILES is read from it. * marks the point of attachment. X14 = NC(=O)[C@H](CCCCNC(=O)CCCC[C@@H]1SC[C@@H]2NC(=O)N[C@@H]21)NC(=O)CCC(=O)NCCCOCCOCCOCCCNC(=O)CCC(=O)NCCCOCCOCCOCCCN*; TtdsdLys(DOTA)NH2 = NC(=O)[C@@H](CCCCNC(=O)CN1CCN(CC(=O)O)CCN(CC(=O)O)CCN(CC(=O)O)CC1)NC(=O)CCC(=O)NCCCOCCOCCOCCCN*; X7 = O=C(O)CN1CCN(CC(=O)O)CCN(CC(=O)NC2CCN(CC(=O)*)CC2)CCN(CC(=O)O)CC1; DOTA = O=C(O)CN1CCN(CC(=O)O)CCN(CC(=O)*)CCN(CC(=O)O)CC1; Biotin = O=C1N[C@H]2[C@H](CS[C@H]2CCCCC(=O)*)N1; Phe(4-Cl) = N[C@@H](Cc1ccc(Cl)cc1)C(=O)O; Propanoyl(3-SO2NH2) = NS(=O)(=O)CCC(=O)*; Arg(Me) = CNC(=N)NCCC[C@H](N)C(=O)O; X1 = O=C(CC1CCN([*:1])CC1)[*:2]; Cit = NC(=O)NCCC[C@H](N)C(=O)O; Tle = CC(C)(C)[C@H](N)C(=O)O; Nle = CCCC[C@H](N)C(=O)O; Dap = NC[C@H](N)C(=O)O; Aib = CC(C)(N)C(=O)O; CO = O=C([*:1])[*:2]; Guanidino = N=C(N)N*

Tests used:
[1] = biological target: T1, Fc-fusion protein of human PSMA (hPSMA-Fc) (Homo sapiens, UniProt Q04609); assay: Surface plasmon resonance assay (Biacore T200, single cycle kinetic); assay type: binding; details: hPSMA-Fc, 25° C., read-out: pKD CAT (converted)
T1 construct: purchased Acro Biosystems PSA-H5264
Procedure, shortened: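 KD, expressed as pKD, came from 1:1 Langmuir fits of reference- and buffer-blank-subtracted SPR data. The runs were single-cycle kinetics at 25° C in HBST/0.1% DMSO over human PSMA-Fc, captured to ~1000 RU on a peptide-coated CM5 surface and regenerated with 10 mM glycine pH 1.5.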

[2] = biological target: T2, PSMA-expressing C4-2 cells (Homo sapiens, UniProt Q04609); assay: FACS binding assay (competition with 50 nM PSM-0183); details: read-out: pIC50 [C4-2] CAT (converted)
T2 construct: PSMA-expressing C4-2 cells (ATCC, Cat. No. CRL-3314) were cultured in RPMI-1640; host or cells: C4-2 cells
Procedure, shortened: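 Competition format: fluorescent tracer PSM-0183 (50 nM) displaced from PSMA on C4-2 cells by a test compound titration over 1 h at 4 °C. Bound tracer was quantified as flow-cytometric AF488 median fluorescence after washing. Four-parameter logistic fits of MFI data gave IC50 and pIC50.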

[3] = SPR, single cycle kinetic, category
[4] = FACS binding, C4-2 cells, competition with 50 nM PSM-0183, category
[5] = pKD category for PSMA SPR activity assay
[6] = pIC50 category of FACS binding, C4-2 cells
[7] = FACS binding, PSMA-expressing C4-2 cells, pIC50 category

T1 sequence (Q04609 44-750 limits assumed): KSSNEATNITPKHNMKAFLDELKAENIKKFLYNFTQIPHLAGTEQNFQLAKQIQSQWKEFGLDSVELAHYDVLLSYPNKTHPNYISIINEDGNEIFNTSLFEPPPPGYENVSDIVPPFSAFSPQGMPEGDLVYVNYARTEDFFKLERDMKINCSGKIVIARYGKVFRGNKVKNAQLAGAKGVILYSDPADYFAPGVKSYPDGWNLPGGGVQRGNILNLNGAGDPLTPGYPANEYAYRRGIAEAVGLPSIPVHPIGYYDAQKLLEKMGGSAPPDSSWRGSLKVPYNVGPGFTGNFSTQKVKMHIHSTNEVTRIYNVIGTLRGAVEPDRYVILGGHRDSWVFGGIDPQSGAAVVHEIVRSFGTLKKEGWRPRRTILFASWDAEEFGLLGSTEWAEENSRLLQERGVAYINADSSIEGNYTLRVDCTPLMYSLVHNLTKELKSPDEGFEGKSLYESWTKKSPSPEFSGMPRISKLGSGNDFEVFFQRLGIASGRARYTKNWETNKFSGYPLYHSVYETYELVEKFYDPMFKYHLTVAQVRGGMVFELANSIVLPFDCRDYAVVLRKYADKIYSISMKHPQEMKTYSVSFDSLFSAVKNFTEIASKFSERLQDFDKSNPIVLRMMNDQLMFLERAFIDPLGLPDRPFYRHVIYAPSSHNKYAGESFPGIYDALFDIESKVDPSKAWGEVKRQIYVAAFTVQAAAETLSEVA
T2 sequence (Q04609 whole entry): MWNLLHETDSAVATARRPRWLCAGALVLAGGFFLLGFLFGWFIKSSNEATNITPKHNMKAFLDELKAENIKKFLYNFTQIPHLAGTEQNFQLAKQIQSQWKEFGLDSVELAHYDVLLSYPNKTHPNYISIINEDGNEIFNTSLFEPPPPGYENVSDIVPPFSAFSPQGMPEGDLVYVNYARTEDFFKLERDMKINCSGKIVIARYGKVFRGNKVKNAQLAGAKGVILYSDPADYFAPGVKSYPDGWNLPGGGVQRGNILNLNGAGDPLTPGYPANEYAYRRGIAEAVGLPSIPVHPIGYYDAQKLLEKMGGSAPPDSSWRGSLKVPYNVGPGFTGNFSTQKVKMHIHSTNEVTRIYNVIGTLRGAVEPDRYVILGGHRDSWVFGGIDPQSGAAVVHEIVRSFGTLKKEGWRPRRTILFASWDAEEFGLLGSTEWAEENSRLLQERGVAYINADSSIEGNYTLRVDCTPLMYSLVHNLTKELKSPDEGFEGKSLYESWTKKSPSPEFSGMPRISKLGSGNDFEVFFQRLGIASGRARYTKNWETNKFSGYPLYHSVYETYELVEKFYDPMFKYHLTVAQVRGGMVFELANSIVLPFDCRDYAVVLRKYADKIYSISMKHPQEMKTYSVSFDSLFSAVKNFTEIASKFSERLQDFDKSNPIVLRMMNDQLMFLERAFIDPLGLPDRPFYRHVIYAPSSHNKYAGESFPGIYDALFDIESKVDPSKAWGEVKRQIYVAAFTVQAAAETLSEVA

Kd [1, 5]	IC50 [2, 6]	Kd ([1]; PSMA SPR assay, pKD category)	IC50 [2, 7]	SMILES	other results
–	–	–	–	C[C@@H](O)[C@H](NC(=O)CC1CCN(C(=O)CN2CCN(CC(=O)O)CCN(CC(=O)O)CCN(CC(=O)O)CC2)CC1)C(=O)NC(C)(C)C(=O)N[C@@H](Cc1ccc(Cl)cc1)C(=O)N[C@H]1CSSC[C@@H](C(=O)N[C@H](C(=O)N[C@H](C(=O)NCCCOCCOCCOCCCNC(=O)CCC(=O)NCCCOCCOCCOCCCNC(=O)CCC(=O)N[C@@H](CCCCNC(=O)CCCC[C@@H]2SC[C@@H]3NC(=O)N[C@@H]32)C(N)=O)[C@@H](C)O)C(C)(C)C)NC(=O)[C@H](CC(N)=O)NC(=O)C(C)(C)NC(=O)[C@H](CCCNC(=N)N)NC(=O)[C@H](CCCCN)NC1=O [PSM-0250, DOTA-Cmp-Thr-Aib-Pcf-[Cys-Lys-Arg-Aib-Asn-Cys]-Tle-Thr-Ttds-Ttds-Lys(Bio)-NH2] ({DOTA}-[X1]T[Aib][Phe(4-Cl)]CKR[Aib]NC[Tle]T-X14; disulfide 5-10)	Kd [1, 3]: < 0.0126 µM; IC50 [2, 4]: 0.2 to 1.26 µM
< 0.0126 µM	< 0.2 µM	–	–	C[C@@H](O)[C@H](NC(=O)[C@@H](NC(=O)[C@@H]1CSSC[C@H](NC(=O)[C@H](Cc2ccc(Cl)cc2)NC(=O)C(C)(C)NC(=O)[C@@H](NC(=O)CC2CCN(C(=O)CN3CCN(CC(=O)O)CCN(CC(=O)O)CCN(CC(=O)O)CC3)CC2)[C@@H](C)O)C(=O)N[C@@H](CCCCN)C(=O)N[C@@H](CNC(=O)NC(=N)N)C(=O)NC(C)(C)C(=O)N[C@@H](CC(N)=O)C(=O)N1)C(C)(C)C)C(N)=O [PSM-0546, DOTA-Cmp-Thr-Aib-Pcf-[Cys-Lys-Urr-Aib-Asn-Cys]-Tle-Thr-NH2] ({DOTA}-[X1]T[Aib][Phe(4-Cl)]CK[Dap]([CO-Guanidino])[Aib]NC[Tle]T-NH2; disulfide 5-10)	–
–	–	< 0.0126 µM	< 0.2 µM	CC(=O)N[C@H](C(=O)NC(C)(C)C(=O)N[C@@H](Cc1ccc(Cl)cc1)C(=O)N[C@H]1CSSC[C@@H](C(=O)N[C@H](C(=O)N[C@H](C(N)=O)[C@@H](C)O)C(C)(C)C)NC(=O)[C@H](CC(N)=O)NC(=O)C(C)(C)NC(=O)[C@H](CCCNC(=N)N)NC(=O)[C@H](CCCCN)NC1=O)[C@@H](C)O [PSM-0336, Ac-Thr-Aib-Pcf-[Cys-Lys-Arg-Aib-Asn-Cys]-Tle-Thr-NH2] (Ac-T[Aib][Phe(4-Cl)]CKR[Aib]NC[Tle]T-NH2; disulfide 4-9)	–
< 0.0126 µM	< 0.2 µM	–	–	CC(=O)N[C@H](C(=O)NC(C)(C)C(=O)N[C@@H](Cc1ccccc1)C(=O)N[C@H]1CSSC[C@@H](C(=O)N[C@H](C(=O)N[C@H](C(N)=O)[C@@H](C)O)C(C)(C)C)NC(=O)[C@@H](CC(N)=O)NC(=O)C(C)(C)NC(=O)[C@H](CCCNC(=N)N)NC(=O)[C@H](CCCCN)NC1=O)[C@@H](C)O [PSM-0402, Ac-Thr-Aib-Phe-[Cys-Lys-Arg-Aib-asn-Cys]-Tle-Thr-NH2] (Ac-T[Aib]FCKR[Aib][dN]C[Tle]T-NH2; disulfide 4-9)	–
–	–	< 0.0126 µM	< 0.2 µM	CC(=O)N[C@H](C(=O)NC(C)(C)C(=O)N[C@@H](Cc1ccccc1)C(=O)N[C@H]1CSSC[C@@H](C(=O)N[C@H](C(=O)N[C@H](C(=O)N[C@@H](CC(=O)O)C(=O)NCCCOCCOCCOCCCNC(=O)CCC(=O)N[C@H](CCCCNC(=O)CN2CCN(CC(=O)O)CCN(CC(=O)O)CCN(CC(=O)O)CC2)C(N)=O)[C@@H](C)O)C(C)(C)C)NC(=O)[C@H](CC(N)=O)NC(=O)[C@H](C)NC(=O)[C@H](CCCNC(=N)N)NC(=O)[C@H](CCCCN)NC1=O)[C@@H](C)O [PSM-0295, Ac-Thr-Aib-Phe-[Cys-Lys-Arg-Ala-Asn-Cys]-Tle-Thr-Asp-Ttds-lys(DOTA)-NH2] (Ac-T[Aib]FCKRANC[Tle]TD-{TtdsdLys(DOTA)NH2}; disulfide 4-9)	–
–	–	–	–	CC(=O)N[C@H](C(=O)NC(C)(C)C(=O)N[C@@H](Cc1ccccc1)C(=O)N[C@H]1CSSC[C@@H](C(=O)N[C@H](C(=O)N[C@H](C(=O)N2CCC(CC(=O)N[C@H](CCCCNC(=O)CN3CCN(CC(=O)O)CCN(CC(=O)O)CCN(CC(=O)O)CC3)C(N)=O)CC2)[C@@H](C)O)C(C)(C)C)NC(=O)[C@H](CC(N)=O)NC(=O)C(C)(C)NC(=O)[C@H](CCCNC(N)=O)NC(=O)[C@H](CCCCN)NC1=O)[C@@H](C)O [PSM-0252, Ac-Thr-Aib-Phe-[Cys-Lys-Cit-Aib-Asn-Cys]-Tle-Thr-Cmp-lys(DOTA)-NH2] (Ac-T[Aib]FCK[Cit][Aib]NC[Tle]T[X1][dK](DOTA)-NH2; disulfide 4-9)	Kd [1, 3]: > 0.501 µM; IC50 [2, 4]: 0.2 to 1.26 µM
–	–	< 0.0126 µM	< 0.2 µM	CNC(=N)NCCC[C@@H]1NC(=O)[C@H](CCCCN)NC(=O)[C@@H](NC(=O)[C@H](Cc2ccc(Cl)cc2)NC(=O)C(C)(C)NC(=O)[C@@H](NC(=O)CC2CCN(C(=O)CN3CCN(CC(=O)O)CCN(CC(=O)O)CCN(CC(=O)O)CC3)CC2)[C@@H](C)O)CSSC[C@@H](C(=O)N[C@H](C(=O)N[C@H](C(N)=O)[C@@H](C)O)C(C)(C)C)NC(=O)[C@H](CC(N)=O)NC(=O)C(C)(C)NC1=O [PSM-0351, DOTA-Cmp-Thr-Aib-Pcf-[Cys-Lys-Arg(Me)-Aib-Asn-Cys]-Tle-Thr-NH2] ({DOTA}-[X1]T[Aib][Phe(4-Cl)]CK[Arg(Me)][Aib]NC[Tle]T-NH2; disulfide 5-10)	–
< 0.0126 µM	< 0.2 µM	–	–	CC(=O)N[C@H](C(=O)NC(C)(C)C(=O)N[C@@H](Cc1ccc(Cl)cc1)C(=O)N[C@H]1CSSC[C@@H](C(=O)N[C@H](C(=O)N[C@H](C(=O)N2CCC(CC(=O)N[C@H](CCCCNC(=O)CN3CCN(CC(=O)O)CCN(CC(=O)O)CCN(CC(=O)O)CC3)C(N)=O)CC2)[C@@H](C)O)C(C)(C)C)NC(=O)[C@H](CC(N)=O)NC(=O)C(C)(C)NC(=O)[C@H](CCCNC(=N)N)NC(=O)[C@H](CCCCN)NC1=O)[C@@H](C)O [PSM-0482, Ac-Thr-Aib-Pcf-[Cys-Lys-Arg-Aib-Asn-Cys]-Tle-Thr-Cmp-lys(DOTA)-NH2] (Ac-T[Aib][Phe(4-Cl)]CKR[Aib]NC[Tle]T[X1][dK](DOTA)-NH2; disulfide 4-9)	–
–	–	–	–	C[C@@H](O)[C@H](NC(=O)[C@@H](NC(=O)[C@@H]1CSSC[C@H](NC(=O)[C@H](Cc2ccc(Cl)cc2)NC(=O)C(C)(C)NC(=O)CCS(N)(=O)=O)C(=O)N[C@@H](CCCCN)C(=O)N[C@@H](CCCNC(=N)N)C(=O)N[C@@H](CCCCNC(=O)CN2CCC(NC(=O)CN3CCN(CC(=O)O)CCN(CC(=O)O)CCN(CC(=O)O)CC3)CC2)C(=O)N[C@@H](CC(N)=O)C(=O)N1)C(C)(C)C)C(N)=O [PSM-0188, SaPr-Aib-Pcf-[Cys-Lys-Arg-Lys(DOTA-APAc)-Asn-Cys]-Tle-Thr-NH2] ({Propanoyl(3-SO2NH2)}-[Aib][Phe(4-Cl)]CKRK(X7)NC[Tle]T-NH2; disulfide 3-8)	Kd [1, 3]: < 0.0126 µM; IC50 [2, 4]: < 0.2 µM
< 0.0126 µM	< 0.2 µM	–	–	CC(=O)N[C@H](C(=O)NC(C)(C)C(=O)N[C@@H](Cc1ccccc1)C(=O)N[C@H]1CSSC[C@@H](C(=O)N[C@H](C(=O)N[C@H](C(N)=O)[C@@H](C)O)C(C)(C)C)NC(=O)[C@H](CC(C)C)NC(=O)C(C)(C)NC(=O)[C@H](CCCNC(=N)N)NC(=O)[C@H](CCCCN)NC1=O)[C@@H](C)O [PSM-0545, Ac-Thr-Aib-Phe-[Cys-Lys-Arg-Aib-Leu-Cys]-Tle-Thr-NH2] (Ac-T[Aib]FCKR[Aib]LC[Tle]T-NH2; disulfide 4-9)	–
–	–	> 0.501 µM	1.26 to 3.16 µM	CC(=O)N[C@H](C(=O)NC(C)(C)C(=O)N[C@@H](Cc1ccccc1)C(=O)N[C@H]1CSSC[C@@H](C(=O)N[C@H](C(=O)N[C@H](C(=O)N[C@@H](CC(=O)O)C(N)=O)[C@@H](C)O)C(C)(C)C)NC(=O)[C@H](CC(N)=O)NC(=O)[C@H](C)NC(=O)[C@H](CCCNC(=N)N)NC(=O)[C@H](CCC(=O)O)NC1=O)[C@@H](C)O [PSM-0291, Ac-Thr-Aib-Phe-[Cys-Glu-Arg-Ala-Asn-Cys]-Tle-Thr-Asp-NH2] (Ac-T[Aib]FCERANC[Tle]TD-NH2; disulfide 4-9)	–
< 0.0126 µM	0.2 to 1.26 µM	–	–	C[C@@H](O)[C@H](NC(=O)[C@@H](NC(=O)[C@@H]1CSSC[C@H](NC(=O)[C@H](Cc2ccc(Cl)cc2)NC(=O)C(C)(C)NC(=O)[C@@H](NC(=O)CC2CCN(C(=O)CN3CCN(CC(=O)O)CCN(CC(=O)O)CCN(CC(=O)O)CC3)CC2)[C@@H](C)O)C(=O)N[C@@H](CCCCNC(=O)CCCC[C@@H]2SC[C@@H]3NC(=O)N[C@@H]32)C(=O)N[C@@H](CCCNC(=N)N)C(=O)NC(C)(C)C(=O)N[C@@H](CC(N)=O)C(=O)N1)C(C)(C)C)C(N)=O [PSM-0490, DOTA-Cmp-Thr-Aib-Pcf-[Cys-Lys (Bio)-Arg-Aib-Asn-Cys]-Tle-Thr-NH2] ({DOTA}-[X1]T[Aib][Phe(4-Cl)]CK(Biotin)R[Aib]NC[Tle]T-NH2; disulfide 5-10)	–
0.126 to 0.501 µM	0.2 to 1.26 µM	–	–	CCCC[C@H](NC(=O)[C@@H]1CSSC[C@H](NC(=O)[C@H](Cc2ccccc2)NC(=O)[C@H](C)NC(=O)[C@@H](NC(C)=O)[C@@H](C)O)C(=O)N[C@@H](CCCCN)C(=O)N[C@@H](CCCNC(=N)N)C(=O)N[C@@H](C)C(=O)N[C@@H](CC(N)=O)C(=O)N1)C(=O)N[C@@H](C)C(=O)N[C@@H](CC(=O)O)C(N)=O [PSM-0476, Ac-Thr-Als-Phe-[Cys-Lys-Arg-Ala-Asn-Cys]-Nle-Als-Asp-NH2] (Ac-TAFCKRANC[Nle]AD-NH2; disulfide 4-9)	–
